From ChEMBL document CHEMBL1140652 (Bioorg Med Chem Lett, 2007) come the findings set out here.

The nature of data set [1]: physchem. The note with it: potassium phosphate buffer, pH 6.5.
Description: Aqueous solubility in potassium phosphate buffer at pH 6.5 by laser nephrometry
Data set [2] has as its system Escherichia coli. Put plainly: microbe, parasite or virus in culture.
Description: Inhibition of transcription and translation activity in Escherichia coli by luciferase reporter assay
Data set [3] relates to Staphylococcus aureus. Put plainly: microbe, parasite or virus in culture. The note with it: SA1.
Description: Antibacterial activity against Staphylococcus aureus UC76 SA1
Data set [4] relates to Streptococcus pneumoniae. The experiment in a line: microbe, parasite or virus in culture. The note with it: SV1.
Description: Antibacterial activity against Streptococcus pneumoniae SV1 SP3
The test system of data set [5] is Enterococcus faecalis. Put plainly: microbe, parasite or virus in culture.
Description: Antibacterial activity against Enterococcus faecalis MGH2 EF1-1
Data set [6] deals with Haemophilus influenzae. Put plainly: microbe, parasite or virus in culture.
Description: Antibacterial activity against Haemophilus influenzae HI3542
In data set [7] the test system is Moraxella catarrhalis. Put plainly: microbe, parasite or virus in culture.
Description: Antibacterial activity against Moraxella catarrhalis BC-3531

Values after ≈ are worked out from the molar mass of the structure shown.

`CC(=O)NC[C@H]1CN(c2ccc3c(c2)CCCc2cn[nH]c2-3)C(=O)O1`: in data set [1], the solubility (kinetic) came to 14 µg/mL (≈ 41.1 µM). Moreover, in data set [2], the IC50 was determined as 450 nM. Further, the MIC in data set [3] is 0.5 µg/mL (≈ 1.47 µM); in data set [4], 0.25 µg/mL (≈ 0.734 µM); in data set [5] it was 0.25 µg/mL (≈ 0.734 µM); in data set [6], 2 µg/mL (≈ 5.88 µM); in data set [7], 2 µg/mL (≈ 5.88 µM).

Compound `COc1ccc(CNc2n[nH]c3c2CCCc2cc(N4C[C@H](CNC(C)=O)OC4=O)ccc2-3)cc1` displayed an IC50 in data set [2] of 2200 nM. Moreover, the MIC in data set [3] came out at 1 µg/mL (≈ 2.1 µM); in data set [4] it was 0.5 µg/mL (≈ 1.05 µM); in data set [5] it was 1 µg/mL (≈ 2.1 µM); in data set [6], 8 µg/mL (≈ 16.8 µM); in data set [7] it was 4 µg/mL (≈ 8.41 µM).

`COCCNc1n[nH]c2c1CCCc1cc(N3C[C@H](CNC(C)=O)OC3=O)ccc1-2`: in data set [2], the IC50 was found to be 2600 nM. The MIC in data set [3] was determined as 2 µg/mL (≈ 4.84 µM); in data set [4], 1 µg/mL (≈ 2.42 µM); in data set [5], 2 µg/mL (≈ 4.84 µM); in data set [6], 1 µg/mL (≈ 2.42 µM); in data set [7], 8 µg/mL (≈ 19.3 µM).

As to `CC(=O)NC[C@H]1CN(c2ccc3c(c2)CCCc2c(NCCN)n[nH]c2-3)C(=O)O1`, the kinetic solubility in data set [1] is above 70 µg/mL. Besides, half-maximal inhibition in data set [2] (IC50) was put at 800 nM. The MIC was 32 µg/mL (≈ 80.3 µM) in data set [3]; 4 µg/mL (≈ 10 µM) in data set [4]; 16 µg/mL (≈ 40.2 µM) in data set [5]; 16 µg/mL (≈ 40.2 µM) in data set [6]; 4 µg/mL (≈ 10 µM) in data set [7].

In data set [2], `CC(=O)NC[C@H]1CN(c2ccc3c(c2)CCCc2c(N)n[nH]c2-3)C(=O)O1` registered an IC50 of 1200 nM. Besides, the MIC was found to be 4 µg/mL (≈ 11.3 µM) in data set [3]; 0.5 µg/mL (≈ 1.41 µM) in data set [4]; 2 µg/mL (≈ 5.63 µM) in data set [5]; 4 µg/mL (≈ 11.3 µM) in data set [6]; 2 µg/mL (≈ 5.63 µM) in data set [7].

In data set [1], `CNc1n[nH]c2c1CCCc1cc(N3C[C@H](CNC(C)=O)OC3=O)ccc1-2` registered a kinetic solubility above 70 µg/mL. In addition, inhibition in data set [2] was half-maximal at 1000 nM (IC50). Moreover, the MIC in data set [3] was 2 µg/mL (≈ 5.41 µM); in data set [4], 0.5 µg/mL (≈ 1.35 µM); in data set [5] it was 1 µg/mL (≈ 2.71 µM); in data set [6], 4 µg/mL (≈ 10.8 µM); in data set [7] it was 2 µg/mL (≈ 5.41 µM).

`CCN(CC)CCCNc1n[nH]c2c1CCCc1cc(N3C[C@H](CNC(C)=O)OC3=O)ccc1-2` showed an IC50 in data set [2] of 13000 nM. Further, the MIC in data set [3] came out at 64 µg/mL (≈ 137 µM); in data set [4], 4 µg/mL (≈ 8.54 µM); in data set [5] it was 32 µg/mL (≈ 68.3 µM); in data set [6] it was 32 µg/mL (≈ 68.3 µM); in data set [7], 32 µg/mL (≈ 68.3 µM).

Consider `CCNc1n[nH]c2c1CCCc1cc(N3C[C@H](CNC(C)=O)OC3=O)ccc1-2`, for which, in data set [2], half-maximal inhibition (IC50) was put at 1300 nM. In addition, the MIC came to 1 µg/mL (≈ 2.61 µM) in data set [3]; 0.25 µg/mL (≈ 0.652 µM) in data set [4]; 1 µg/mL (≈ 2.61 µM) in data set [5]; 4 µg/mL (≈ 10.4 µM) in data set [6]; 4 µg/mL (≈ 10.4 µM) in data set [7].

The compound `CC(=O)NC[C@H]1CN(c2ccc3c(c2)CCCc2c(NC(C)C)n[nH]c2-3)C(=O)O1` gave an IC50 in data set [2] of 2200 nM. Further, the MIC in data set [3] was 4 µg/mL (≈ 10.1 µM); in data set [4], 0.5 µg/mL (≈ 1.26 µM); in data set [5] it was 2 µg/mL (≈ 5.03 µM); in data set [6], 8 µg/mL (≈ 20.1 µM); in data set [7], 8 µg/mL (≈ 20.1 µM).

In turn, `CCCNc1n[nH]c2c1CCCc1cc(N3C[C@H](CNC(C)=O)OC3=O)ccc1-2` gave an IC50 in data set [2] of 2500 nM. Further, the MIC amounted to 2 µg/mL (≈ 5.03 µM) in data set [3]; 0.25 µg/mL (≈ 0.629 µM) in data set [4]; 1 µg/mL (≈ 2.52 µM) in data set [5]; 4 µg/mL (≈ 10.1 µM) in data set [6]; 8 µg/mL (≈ 20.1 µM) in data set [7].

Regarding `CC(=O)NC[C@H]1CN(c2ccc3c(c2)CCCc2c(Nc4ccccc4)n[nH]c2-3)C(=O)O1`, the MIC worked out at 1 µg/mL (≈ 2.32 µM) in data set [3]; 0.5 µg/mL (≈ 1.16 µM) in data set [4]; 0.5 µg/mL (≈ 1.16 µM) in data set [5]; 4 µg/mL (≈ 9.27 µM) in data set [6]; 2 µg/mL (≈ 4.64 µM) in data set [7].

As to `CC(=O)NC[C@H]1CN(c2ccc3c(c2)CCCc2c(NCCN4CCOCC4)n[nH]c2-3)C(=O)O1`, in data set [2], the IC50 is 1900 nM. Further, the MIC in data set [3] came out at 16 µg/mL (≈ 34.1 µM); in data set [4], 2 µg/mL (≈ 4.27 µM); in data set [5], 8 µg/mL (≈ 17.1 µM); in data set [6] it was 8 µg/mL (≈ 17.1 µM); in data set [7], 16 µg/mL (≈ 34.1 µM).

In data set [2], `CC(=O)NC[C@H]1CN(c2ccc3c(c2)CCCc2c(NCCc4ccccn4)n[nH]c2-3)C(=O)O1` had an IC50 of 1700 nM. Further, the MIC in data set [3] is 8 µg/mL (≈ 17.4 µM); in data set [4], 0.5 µg/mL (≈ 1.09 µM); in data set [5], 1 µg/mL (≈ 2.17 µM); in data set [6], 8 µg/mL (≈ 17.4 µM); in data set [7], 8 µg/mL (≈ 17.4 µM).

For `CC(=O)NC[C@H]1CN(c2ccc3c(c2)CCCc2c(NCCc4ccc(O)cc4)n[nH]c2-3)C(=O)O1`, the IC50 in data set [2] is 2100 nM. The MIC was 2 µg/mL (≈ 4.21 µM) in data set [3]; 0.5 µg/mL (≈ 1.05 µM) in data set [4]; 1 µg/mL (≈ 2.1 µM) in data set [5]; 4 µg/mL (≈ 8.41 µM) in data set [6]; 2 µg/mL (≈ 4.21 µM) in data set [7].

In turn, `CC(=O)NC[C@H]1CN(c2ccc3c(c2)CCCc2c(NCCCO)n[nH]c2-3)C(=O)O1` yielded an IC50 in data set [2] of 1800 nM. Also, the MIC in data set [3] was found to be 8 µg/mL (≈ 19.3 µM); in data set [4], 4 µg/mL (≈ 9.67 µM); in data set [5], 8 µg/mL (≈ 19.3 µM); in data set [6] it was 16 µg/mL (≈ 38.7 µM); in data set [7], 32 µg/mL (≈ 77.4 µM).

In data set [2], `COCCCNc1n[nH]c2c1CCCc1cc(N3C[C@H](CNC(C)=O)OC3=O)ccc1-2` showed an IC50 of 2900 nM. For the same compound, the MIC in data set [3] was determined as 4 µg/mL (≈ 9.36 µM); in data set [4] it was 1 µg/mL (≈ 2.34 µM); in data set [5] it was 4 µg/mL (≈ 9.36 µM); in data set [6], 16 µg/mL (≈ 37.4 µM); in data set [7] it was 16 µg/mL (≈ 37.4 µM).

Compound `CC(=O)NC[C@H]1CN(c2ccc3c(c2)CCCc2c(NCCCN)n[nH]c2-3)C(=O)O1` displayed a solubility (kinetic) in data set [1] above 70 µg/mL. This compound also showed an IC50 in data set [2] of 450 nM. In addition, the MIC is 32 µg/mL (≈ 77.6 µM) in data set [3]; 4 µg/mL (≈ 9.7 µM) in data set [4]; 8 µg/mL (≈ 19.4 µM) in data set [5]; above 64 µg/mL in data set [6]; 32 µg/mL (≈ 77.6 µM) in data set [7].

In turn, `CC(=O)NC[C@H]1CN(c2ccc3c(c2)CCCc2c(NC(=O)C(O)CO)n[nH]c2-3)C(=O)O1` (some centres undefined) showed a solubility (kinetic) in data set [1] of 46 µg/mL (≈ 104 µM). 780 nM corresponded to half-maximal inhibition in data set [2] (IC50). The MIC in data set [3] was 16 µg/mL (≈ 36.1 µM); in data set [4] it was 2 µg/mL (≈ 4.51 µM); in data set [5], 16 µg/mL (≈ 36.1 µM); in data set [6], 32 µg/mL (≈ 72.2 µM); in data set [7], 32 µg/mL (≈ 72.2 µM).

Consider `CC(=O)NC[C@H]1CN(c2ccc3c(c2)CCCc2c(NCc4ccccc4)n[nH]c2-3)C(=O)O1`, for which, in data set [2], the IC50 came out at 2000 nM. The MIC in data set [3] turned out to be 2 µg/mL (≈ 4.49 µM); in data set [4] it was 1 µg/mL (≈ 2.24 µM); in data set [5], 1 µg/mL (≈ 2.24 µM); in data set [6], 8 µg/mL (≈ 18 µM); in data set [7], 4 µg/mL (≈ 8.98 µM).

For the compound `CC(=O)NC[C@H]1CN(c2ccc3c(c2)CCCc2c(NC(=O)CO)n[nH]c2-3)C(=O)O1`, the midpoint of inhibition in data set [2], the IC50, lay at 1300 nM. The MIC in data set [3] was found to be 16 µg/mL (≈ 38.7 µM); in data set [4] it was 4 µg/mL (≈ 9.68 µM); in data set [5] it was 4 µg/mL (≈ 9.68 µM); in data set [6] it was 16 µg/mL (≈ 38.7 µM); in data set [7], 16 µg/mL (≈ 38.7 µM).

A word on the solubility (kinetic): it is the concentration staying in solution when a stock, usually in DMSO, is diluted into the medium. By IC50 is commonly meant the midpoint of a concentration-inhibition curve.
